Organism: Rattus norvegicus
Assay type: toxicity, organism-based, Sprague-Dawley
Conditions: in vivo, po, 24 h, route oral GAVAGE, time 1 day, […]; for ABSOLUTE BASOPHIL / ABSOLUTE EOSINOPHIL / ABSOLUTE LYMPHOCYTE / ABSOLUTE MONOCYTE / BASOPHIL / EOSINOPHIL / ERYTHROCYTE COUNT / HEMATOCRIT / HEMOGLOBIN / LEUKOCYTE COUNT / LYMPHOCYTE / MEAN CORPUSCULAR HEMOGLOBIN / MEAN CORPUSCULAR HEMOGLOBIN CONCENTRATION / MEAN CORPUSCULAR VOLUME / MONOCYTE / NEUTROPHIL / PLATELET COUNT: tissue Blood; for ALANINE AMINOTRANSFERASE / ALBUMIN / ALKALINE PHOSPHATASE / ASPARTATE AMINOTRANSFERASE / BLOOD UREA NITROGEN / CARBON DIOXIDE / CHLORIDE / CHOLESTEROL / CREATINE PHOSPHOKINASE / CREATININE / GLUCOSE / LACTATE DEHYDROGENASE / LIPASE / PHOSPHORUS / POTASSIUM / SODIUM / TOTAL BILIRUBIN / TOTAL PROTEIN / URIC ACID: tissue Plasma
[1] = 0 mg/kg, vehicle control, dose level Control

Description: DrugMatrix - Regimen: Single

Clc1ccc(Cl)cc1 [1,4-DICHLOROBENZENE]
ABSOLUTE BASOPHIL [1]: 46.7 cells/µL
ABSOLUTE EOSINOPHIL [1]: 130 cells/µL
ABSOLUTE LYMPHOCYTE [1]: 8720 cells/µL
ABSOLUTE MONOCYTE [1]: 140 cells/µL
BASOPHIL [1]: 0.43%
EOSINOPHIL [1]: 1.33%
ERYTHROCYTE COUNT [1]: 6.45 x10E6/uL
HEMATOCRIT [1]: 42.2%
HEMOGLOBIN [1]: 13.33 G/DL
LEUKOCYTE COUNT [1]: 10.59 x10E3/uL
LYMPHOCYTE [1]: 82.13%
MEAN CORPUSCULAR HEMOGLOBIN [1]: 20.67 pg
MEAN CORPUSCULAR HEMOGLOBIN CONCENTRATION [1]: 31.6 G/DL
MEAN CORPUSCULAR VOLUME [1]: 65.4 fL
MONOCYTE [1]: 1.37%
NEUTROPHIL [1]: 14.3%
PLATELET COUNT [1]: 1048.67 x10E3/uL
ALANINE AMINOTRANSFERASE [1]: 44 u/L
ALBUMIN [1]: 3.93 G/DL
ALKALINE PHOSPHATASE [1]: 551.33 u/L
ASPARTATE AMINOTRANSFERASE [1]: 97 u/L
BLOOD UREA NITROGEN [1]: 13.5 mg/dL
CARBON DIOXIDE [1]: 37.33 mmol/L
CHLORIDE [1]: 102.33 MEQ/L
CHOLESTEROL [1]: 83 mg/dL
CREATINE PHOSPHOKINASE [1]: 365.33 u/L
CREATININE [1]: 0.4 mg/dL
GLUCOSE [1]: 189 mg/dL
LACTATE DEHYDROGENASE [1]: 170.33 u/L
LIPASE [1]: 10.67 u/L
PHOSPHORUS [1]: 11.53 mg/dL
POTASSIUM [1]: 5.63 MEQ/L
SODIUM [1]: 144.33 MEQ/L
TOTAL BILIRUBIN [1]: 0.4 mg/dL
TOTAL PROTEIN [1]: 6.27 G/DL
URIC ACID [1]: 0.87 mg/dL
ABSOLUTE BASOPHIL (900 mg/kg, dose level High): 10 cells/µL
ABSOLUTE EOSINOPHIL (900 mg/kg, dose level High): 23.3 cells/µL
ABSOLUTE LYMPHOCYTE (900 mg/kg, dose level High): 4230 cells/µL
ABSOLUTE MONOCYTE (900 mg/kg, dose level High): 80 cells/µL
BASOPHIL (900 mg/kg, dose level High): 0.2%
EOSINOPHIL (900 mg/kg, dose level High): 0.5%
ERYTHROCYTE COUNT (900 mg/kg, dose level High): 6.97 x10E6/uL
HEMATOCRIT (900 mg/kg, dose level High): 46.93%
HEMOGLOBIN (900 mg/kg, dose level High): 15 G/DL
LEUKOCYTE COUNT (900 mg/kg, dose level High): 5.04 x10E3/uL
LYMPHOCYTE (900 mg/kg, dose level High): 83.5%
MEAN CORPUSCULAR HEMOGLOBIN (900 mg/kg, dose level High): 21.5 pg
MEAN CORPUSCULAR HEMOGLOBIN CONCENTRATION (900 mg/kg, dose level High): 31.97 G/DL
MEAN CORPUSCULAR VOLUME (900 mg/kg, dose level High): 67.33 fL
MONOCYTE (900 mg/kg, dose level High): 1.67%
NEUTROPHIL (900 mg/kg, dose level High): 13.93%
PLATELET COUNT (900 mg/kg, dose level High): 1227 x10E3/uL
ALANINE AMINOTRANSFERASE (900 mg/kg, dose level High): 45.33 u/L
ALBUMIN (900 mg/kg, dose level High): 3.87 G/DL
ALKALINE PHOSPHATASE (900 mg/kg, dose level High): 421.33 u/L
ASPARTATE AMINOTRANSFERASE (900 mg/kg, dose level High): 99.33 u/L
BLOOD UREA NITROGEN (900 mg/kg, dose level High): 12.67 mg/dL
CARBON DIOXIDE (900 mg/kg, dose level High): 34.67 mmol/L
CHLORIDE (900 mg/kg, dose level High): 103 MEQ/L
CHOLESTEROL (900 mg/kg, dose level High): 65.67 mg/dL
CREATINE PHOSPHOKINASE (900 mg/kg, dose level High): 827.67 u/L
CREATININE (900 mg/kg, dose level High): 0.5 mg/dL
GLUCOSE (900 mg/kg, dose level High): 188.67 mg/dL
LACTATE DEHYDROGENASE (900 mg/kg, dose level High): 235.33 u/L
LIPASE (900 mg/kg, dose level High): 15.67 u/L
PHOSPHORUS (900 mg/kg, dose level High): 13.87 mg/dL
POTASSIUM (900 mg/kg, dose level High): 6 MEQ/L
SODIUM (900 mg/kg, dose level High): 142.67 MEQ/L
TOTAL BILIRUBIN (900 mg/kg, dose level High): 0.8 mg/dL
TOTAL PROTEIN (900 mg/kg, dose level High): 6.33 G/DL
URIC ACID (900 mg/kg, dose level High): 0.7 mg/dL

From ChEMBL document CHEMBL3885881, “DrugMatrix”
